Legend:
CYP2C19 = target: T1, CYP2C19 (Homo sapiens, UniProt P33261); test: CYP inhibition assay (P450-Glo) CYP2C19; format: in vitro ADME; conditions: P450-Glo CYP2C19 Screening System (CYP enzyme), read-out: CYP inhibition 2C19
T1 construct: purchased Promega Corp. V9880
Source text: Five major screening systems: P450-Glo CYP1A2 Screening System (Catalog# V9770), P450-Glo CYP2C9 Screening System (Catalog# V9790), P450-Glo CYP2C19 (Catalog# V9880), P450-Glo CYP 2D6 (Catalog# V9890), and P450-Glo CYP3A4 (Catalog# V9920) were attained from Promega Corp. (Madison, WI). α-naphthoflavone, sulfaphenazole, amitriptyline, quinidine, and ketoconazole were identified as positive control inhibitors for CYP1A2, CYP2C9, CYP2C19, CYP2D6, and CYP3A4, respectively. The CYP enzyme and substrate were combined in a potassium phosphate (KPO4) buffer and the reaction is initiated by adding an NADPH regenerating system. The volume of the mixture (12.5 μL in a 96-well plate) was combined with an equal volume of test compound solution and positive control inhibitor (12.5 μL added to make the volume 25 μL). The reaction of the NADPH regeneration system was initiated by adding a 2× concentration of NADPH solution. Then an equal volume of luciferin detection reagent was added. The plates were incubated at room temperature for 20 min and the luminescence signal was measured by a microplate reader device.

[1] = Pharmacokinetic study in rats (iv and oral); format: in vivo, male SD rats; conditions: SD, rat, plasma, 5 mg/kg
Experimental: The pharmacokinetic study of 18i was performed using eight-week-old male SD rats (Orient Bio Inc., Seongnam, Korea). 18i and its prodrug 21 (5 mg/kg, 2 mL/kg) were administered via intravenous and oral routes. Blood samples were collected at 0.033, 0.16, 0.5, 1, 2, 4, 6, 8, and 24 h for intravenous injection at 0.15, 0.5, 1, 2, 4, 6, 8, and 24 h for oral dosing after drug administration, and then immediately centrifuged at 10,000× g for 3 min. The plasma concentrations of 18i were determined by LC-MS/MS. The plasma concentration-time profiles and pharmacokientic parameters were analyzed by a non-compartmental method using the nonlinear least-squares regression program WinNonlin 5.3 (Pharsight, Mountain View, CA, USA).
The LC-MS/MS analysis was performed on an Agilent 1200 series (Agilent Technologies, Santa Clara, CA, USA) with an API 4000 linear ion trap triple quadruple mass spectrometer (AB Sciex, CA, USA). The chromatographic separation of the drug was carried out using a kinetex column (100 × 2.1 mm, 3 μm, Phenomenex, CA USA) with a SecurityGuard C18 guard column (4 mm × 2.0 mm i.d., Phenomenex). The flow rate was 300 µL/min with a mobile phase consisting of 0.1% formic acid in water (eluent A) and 0.1% formic acid in acetonitrile (eluent B) by linear gradient condition as follows: starting with 0 to 0.3 min, B: 5%; 0.3 to 2.5 min, B: 5 → 95%; 2.5 to 2.9 min, B: 95%; 2.9 to 3.0 min, B: 95 → 5%, and then re-equilibrated to initial conditions until 3 min. The total run time was 6 min and the injection volume of 5 μL.

TPH1 = target: T2, TPH1 (Homo sapiens, UniProt P17752); test: TPH1 enzyme inhibition, in vitro screening (BPS Bioscience kit, fluorescence); format: biochemical
T2 construct: purchased BPS Bioscience
T2 sequence (P17752 1-444): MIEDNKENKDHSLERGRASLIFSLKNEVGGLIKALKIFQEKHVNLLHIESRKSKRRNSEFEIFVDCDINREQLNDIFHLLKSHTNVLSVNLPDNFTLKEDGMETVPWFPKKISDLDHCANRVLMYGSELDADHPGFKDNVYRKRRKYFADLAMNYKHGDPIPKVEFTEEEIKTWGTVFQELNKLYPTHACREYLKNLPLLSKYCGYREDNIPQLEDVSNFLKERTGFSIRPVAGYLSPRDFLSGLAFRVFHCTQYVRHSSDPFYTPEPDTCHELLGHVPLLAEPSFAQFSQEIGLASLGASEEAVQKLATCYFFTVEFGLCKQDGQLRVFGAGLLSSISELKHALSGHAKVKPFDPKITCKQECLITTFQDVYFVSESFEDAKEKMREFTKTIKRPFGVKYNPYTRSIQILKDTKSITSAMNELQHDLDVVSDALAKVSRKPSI
Experimental: Consequently, the core structure of thienopyrimidine tyrosine (derivative 6) was selected as the starting point for the synthesis, evaluating the structure-activity relationships (SAR), and optimization of TPH1 inhibitors. […]
In vitro screening was performed as described previously [PMID: 33417443]. Briefly, TPH1 enzyme activity was measured with a commercially available kit (BPS Bioscience). Compounds were dissolved in DMSO (Sigma). Then, 10 μL of the compound was dispensed into a 96-well microplate, and 40 μL of the TPH1 enzyme solution (320 ng enzyme/reaction) was added. Then, 50 μL of the TPH1 reaction solution was added, and the microplate was sealed with aluminum foil. The microplate was immediately cooled to 4 °C, gently shaken, and incubated for 4 h. After a defined time, 10 μL of the TPH1 quench solution was added. Then, the fluorescence was measured with a Flexstation3 microplate reader at 300 nm for excitation and 360 nm for emission. All experiments were performed in triplicate.

T1 sequence (P33261 whole entry): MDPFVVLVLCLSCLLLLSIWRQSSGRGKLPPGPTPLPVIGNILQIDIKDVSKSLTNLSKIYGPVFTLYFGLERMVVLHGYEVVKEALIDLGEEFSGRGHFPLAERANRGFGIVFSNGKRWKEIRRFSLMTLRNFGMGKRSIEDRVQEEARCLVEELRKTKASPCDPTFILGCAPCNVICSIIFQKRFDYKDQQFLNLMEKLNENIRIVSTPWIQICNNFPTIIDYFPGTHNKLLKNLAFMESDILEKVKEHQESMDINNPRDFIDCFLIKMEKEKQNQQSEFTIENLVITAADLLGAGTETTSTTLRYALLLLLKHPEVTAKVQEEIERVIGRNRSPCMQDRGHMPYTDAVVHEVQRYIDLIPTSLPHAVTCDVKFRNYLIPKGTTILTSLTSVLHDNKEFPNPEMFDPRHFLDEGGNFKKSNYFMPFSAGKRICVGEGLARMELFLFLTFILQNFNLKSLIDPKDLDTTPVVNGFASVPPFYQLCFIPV

inhibition at 10 µM (CYP2C19): 46.5% | AUC(0-inf) ([1]; male rats, iv, 5 mpk): 1220 ng·h/mL | AUC(0-t) ([1]; male rats, iv, 5 mpk): 1210 ng·h/mL | clearance ([1]; male rats, iv, 5 mpk): 68.2 mL/min/kg | half-life ([1]; male rats, iv, 5 mpk): 1.85 h | Vd ([1]; male rats, iv, 5 mpk, read-out: Vss): 2.16 L/kg | AUC ([1]; male, intravenous, rats, read-out: AUC (text, kind not stated)): 1200 ng·h/mL | IC50 (TPH1): 37 nM | inhibition at 1 µM (TPH1; 1 µM compound): 95%
Structure (SMILES): Cc1ccn(-c2cc(Cl)ccc2[C@@H](Oc2ncnc3c(-c4ccc(C[C@H](N)C(=O)O)cc4)csc23)C(F)(F)F)n1.Cl [Compound 18i, (S)-2-amino-3-(4-(4-((R)-1-(4-chloro-2-(3-methyl-1H-pyrazol-1-yl)phenyl)-2,2,2-trifluoroethoxy)thieno[3,2-d]pyrimidin-7-yl)phenyl)propanoic acid hydrochloride]
